Assays:
[1] = biological target: SRPK1 (Homo sapiens, UniProt Q96SB4); assay type: biochemical; settings: in vitro, RNF12 phospho-Ser214 immunoblot quantified; read-out: IC50, inhibition of RNF12 phosphorylation by SRPK1
Experimental: Cells were lysed, and 1.5 mg of protein immunoprecipitated with 2 μg of SRPK1 or SRPK2 antibodies (BD Biosciences). Immunoprecipitates were then washed with lysis buffer supplemented with 500 mM NaCl and half of the sample was resuspended in loading buffer. The remainder was subjected to in vitro phosphorylation assay containing 0.5 μg RNF12 and 2 mM ATP in kinase buffer (50 mM Tris-HCl [pH 7.5], 0.1 mM EGTA, 10 mM MgCl2, 2 mM DTT) and incubated at 30°C for 30 min. […] For radioactive in vitro kinase assays, reactions were supplemented with 1 μCi γ-^32P ATP. Reactions were incubated at 30°C for 30 min in presence or absence of inhibitor as indicated and samples subjected to polyacrylamide electrophoresis and immunoblot or Coomassie blue staining and signal detected via ECL, infrared detection or autoradiography.
(§1) Supplemental Figure Legends
(Related to Figure 1). (A) Wild-type (WT) mESCs were analysed for protein copy number by absolute quantitative proteomics. […]
Data are represented as mean ± S.E.M. (n=3). […] ND = not detected. (B) Inhibition of RNF12 phosphorylation in vitro by SRPK1 and SRPK2 in the presence of varying concentrations of the indicated SRPK inhibitors was determined by immunoblotting for RNF12 phospho-Ser214 (Left). […] Immunoblots were quantified to generate SRPK inhibitor dose-response curves for inhibition of RNF12 phosphorylation by SRPK1 and SRPK2 in vitro (Right). […]

[2] = biological target: T1, SRPK1 (Mus musculus, UniProt O70551); experiment: SRPK1 immunoprecipitation kinase assay from inhibitor-treated mESCs with RNF12 as substrate; assay type: cell-based; settings: mESCs pre-treated with 10 μM for 4 h
T1 construct: endogenous in cells; host or cells: mESCs (CCE line)
T1 sequence (O70551 whole entry): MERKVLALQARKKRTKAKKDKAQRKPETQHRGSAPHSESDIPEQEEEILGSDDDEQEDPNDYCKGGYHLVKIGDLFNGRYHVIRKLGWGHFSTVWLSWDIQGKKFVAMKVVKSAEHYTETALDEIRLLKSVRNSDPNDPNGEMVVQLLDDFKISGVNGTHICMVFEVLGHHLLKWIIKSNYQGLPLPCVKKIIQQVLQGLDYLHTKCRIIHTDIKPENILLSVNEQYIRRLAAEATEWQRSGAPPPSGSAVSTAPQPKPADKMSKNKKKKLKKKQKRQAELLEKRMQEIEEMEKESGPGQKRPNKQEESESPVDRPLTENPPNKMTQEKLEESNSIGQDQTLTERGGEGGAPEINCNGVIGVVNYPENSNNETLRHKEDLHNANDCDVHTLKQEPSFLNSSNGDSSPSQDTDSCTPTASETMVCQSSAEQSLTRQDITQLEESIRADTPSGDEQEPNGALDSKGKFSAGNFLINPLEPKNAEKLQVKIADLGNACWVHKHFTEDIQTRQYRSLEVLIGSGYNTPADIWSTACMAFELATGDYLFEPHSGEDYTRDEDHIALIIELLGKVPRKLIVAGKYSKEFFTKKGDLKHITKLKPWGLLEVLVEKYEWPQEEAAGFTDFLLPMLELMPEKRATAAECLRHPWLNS
Experimental: SRSF phosphorylation, SRPK1, SRPK2, and ERK1/2 levels were determined by immunoblotting. Expected positions of SRSFs that are not detected are shown in gray. Quantification of SRSF phosphorylation (Right). Data represented as mean ± SEM (n = 4). […] Neuro 2a is a control for exon 16b exclusion in differentiated cells (Bottom). Data represented as mean ± SEM (n = 3). […] Exon 16 inclusion: (^∗∗∗∗) p < 0.0001, Exon 16b inclusion: (^∗) p = 0.0164, p = 0.0485, and p = 0.0489 (left to right). Ratio exon 16b/16: (^∗∗∗∗) p < 0.0001, (^∗∗∗) p = 0.0003. (C) SRPK substrates predicted using ScanProsite and grouped according to UniProt functions. (D) RNF12 phosphorylation sites detected by mass-spectrometry. LZL, leucine-zipper like; NLS, nuclear localization signal; NES, nuclear export signal; RING, RING E3 ubiquitin ligase catalytic domain. (E) CMGC family kinase copy numbers in mESCs determined by quantitative proteomics and represented using Kinoviewer. (F) CMGC kinase (200 mU) phosphorylation of the RNF12 SR-motif in vitro was determined by immunoblotting for RNF12 phospho-Ser214 and total RNF12. […] Normalized RNF12 Ser214 phosphorylation is shown below. Data represented as mean ± SEM (n = 3). […] RNF12 SR-motif phosphorylation was analyzed by immunoblotting for RNF12 phospho-Ser214 and RNF12. SRPK1 and SRPK2 levels are shown as a loading control, Related to Figure S1; Tables S1 and S2. […]

[3] = biological target: 50 representative kinases; experiment: Kinase inhibitor profiling, in vitro kinase assays for 50 representative kinases; assay type: biochemical; settings: 1 μM, SRPK1 compared with 49 other kinases
Experimental: Kinase activity towards specific peptides was assessed in comparison to DMSO control. Full details are available at http://www.kinase-screen.mrc.ac.uk/services/express-screen.
as §1
Figure S1. Differential inhibitor sensitivities and expression profiles of SRPK kinases (Related to Figure 1). (A) Wild-type (WT) mESCs were analysed for protein copy number by absolute quantitative proteomics. SRPK1, SRPK2 and SRPK3 protein copy numbers are shown.
Data are represented as mean ± S.E.M. (n=3). Unpaired Student’s t test, two-sided, confidence level 95%. (****) P<0.0001. ND = not detected. (B) Inhibition of RNF12 phosphorylation in vitro by SRPK1 and SRPK2 in the presence of varying concentrations of the indicated SRPK inhibitors was determined by immunoblotting for RNF12 phospho-Ser214 (Left). RNF12 levels are shown as a control. Immunoblots were quantified to generate SRPK inhibitor dose-response curves for inhibition of RNF12 phosphorylation by SRPK1 and SRPK2 in vitro (Right). (C) WT, Srpk1-/- and Srpk2-/- mESCs were cultured and SRPK protein expression was analysed via immunoblotting. […]
SR-motif phosphorylation of HA-immunoprecipitated RNF12 analysed by phos-tag immunoblotting. […]
(DYRK1A inhibitor), WEHI-345 (RIPK2 inhibitor), IRAK-4-Inhibitor-a (IRAK4 inhibitor) and GSK-461364 (PLK1/2 inhibitor) for 4 h, and RNF12 phosphorylation analysed via phos-tag immunoblotting. […]

Sequence of SRPK1 (Homo sapiens, UniProt Q96SB4) (Q96SB4 whole entry): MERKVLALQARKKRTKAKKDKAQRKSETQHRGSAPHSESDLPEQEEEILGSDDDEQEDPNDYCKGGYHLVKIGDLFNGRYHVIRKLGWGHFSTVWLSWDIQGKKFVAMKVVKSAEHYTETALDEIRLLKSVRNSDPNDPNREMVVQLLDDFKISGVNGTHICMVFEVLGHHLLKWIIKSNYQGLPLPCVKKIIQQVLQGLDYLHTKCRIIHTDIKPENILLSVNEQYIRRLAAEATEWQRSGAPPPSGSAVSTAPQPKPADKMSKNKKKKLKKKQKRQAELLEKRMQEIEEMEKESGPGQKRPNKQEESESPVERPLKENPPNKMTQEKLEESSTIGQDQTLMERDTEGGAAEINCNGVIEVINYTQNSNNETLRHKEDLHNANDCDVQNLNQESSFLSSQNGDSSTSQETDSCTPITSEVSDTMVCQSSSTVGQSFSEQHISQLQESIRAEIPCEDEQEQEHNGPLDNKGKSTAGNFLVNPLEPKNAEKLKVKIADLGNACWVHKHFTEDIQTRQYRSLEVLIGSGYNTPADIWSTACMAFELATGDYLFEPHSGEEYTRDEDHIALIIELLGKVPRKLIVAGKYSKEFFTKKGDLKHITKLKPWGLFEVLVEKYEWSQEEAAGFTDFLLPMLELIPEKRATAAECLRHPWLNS

CCc1cc2c(cc1-c1cccc(S(=O)(=O)F)c1)C(C)(C)c1[nH]c3cc(C#N)ccc3c1C2=O [SRPKIN-1]
IC50 [1]: 15.2 nM | inhibition of SRPK1 in vivo (ability of immunoprecipitates to phosphorylate RNF12) [2]: potently inhibited | kinase inhibition specificity [3]: highly specific
